Data on 30 molecules can be found in US8071768B2, “Alkylquinoline and alkylquinazoline kinase modulators” (Janssen Pharmaceutica, N.V., priority 2005, dated 2011).

The IC50 is the concentration that inhibits the measured activity by half. Low values mean higher potency, high ones lower potency.

T1 sequence (Q16620 32-822): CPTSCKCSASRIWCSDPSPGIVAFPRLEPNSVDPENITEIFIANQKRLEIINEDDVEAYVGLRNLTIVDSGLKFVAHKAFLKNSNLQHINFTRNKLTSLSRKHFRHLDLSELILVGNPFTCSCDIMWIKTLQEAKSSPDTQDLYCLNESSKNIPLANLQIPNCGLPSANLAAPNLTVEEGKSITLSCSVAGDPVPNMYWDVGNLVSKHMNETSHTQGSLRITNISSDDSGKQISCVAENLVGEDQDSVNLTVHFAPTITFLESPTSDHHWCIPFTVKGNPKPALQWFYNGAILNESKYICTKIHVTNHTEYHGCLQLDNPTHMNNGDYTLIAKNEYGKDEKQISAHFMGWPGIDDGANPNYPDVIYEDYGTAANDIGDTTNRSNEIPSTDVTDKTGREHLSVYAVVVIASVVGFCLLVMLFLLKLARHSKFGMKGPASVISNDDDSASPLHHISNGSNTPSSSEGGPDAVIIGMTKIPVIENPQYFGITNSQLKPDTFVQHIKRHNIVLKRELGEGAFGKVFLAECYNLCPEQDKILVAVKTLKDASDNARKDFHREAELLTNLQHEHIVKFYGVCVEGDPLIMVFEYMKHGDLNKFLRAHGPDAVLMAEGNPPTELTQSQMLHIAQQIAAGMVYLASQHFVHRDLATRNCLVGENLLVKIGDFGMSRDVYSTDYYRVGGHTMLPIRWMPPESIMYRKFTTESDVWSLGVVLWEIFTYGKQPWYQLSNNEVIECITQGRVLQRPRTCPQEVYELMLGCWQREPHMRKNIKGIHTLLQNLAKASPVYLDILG

The assay addresses T1, TrkB (Homo sapiens, UniProt Q16620).
T1 construct: purchased Upstate 14-507M
The assay can be described thus: Trk B Fluorescence Polarization Kinase Assay. Format: biochemical. The conditions noted are these: uncertainty ±10%. The method, then:
Trk B Fluorescence Polarization Kinase Assay (TrkB IC50 Data)
The compounds of the present invention are also specific inhibitors of TrkB. Selection of preferred compounds of Formula I for use as TrkB inhibitors was performed in the following manner. The TrkB assay utilized the fluorescein-labeled phosphopeptide and the anti-phosphotyrosine antibody included in the Panvera Phospho-Tyrosine Kinase Kit (Green) supplied by Invitrogen. When TrkB phosphorylated poly Glu4Tyr, the fluorescein-labeled phosphopeptide was displaced from the anti-phosphotyrosine antibody by the phosphorylated poly Glu4Tyr, thus decreasing the FP value. The TrkB kinase reaction was incubated at room temperature for 30 minutes under the following conditions: 50 nM TrkB (Upstate, catalog # 14-507M), 20 ug/mL poly Glu4Tyr, 150 uM ATP, 5 mM MgCl2, 1% compound in DMSO. The kinase reaction was stopped with the addition of EDTA. The fluorescein-labeled phosphopeptide and the anti-phosphotyrosine antibody were added and incubated for 30 minutes at room temperature. Data points were an average of triplicate samples. Inhibition and IC50 data analysis were done with GraphPad Prism using a non-linear regression fit with a multiparamater, sigmoidal dose-response (variable slope) equation.
In general terms: Polarisation of emitted light reports the rotation of a fluorescent probe.
In the case of `CC(C)Oc1ccc(NC(=O)N2CCC(c3ncnc4cc(OCCN5CCOC5=O)ccc34)CC2)cc1` [Compound 79, 4-{7-[2-(2-Oxo-oxazolidin-3-yl)-ethoxy]-quinazolin-4-yl}-piperidine-1-carboxylic acid (4-isopropoxy-phenyl)-amide], the IC50 came out at 0.3 µM. The molecule `CCN(CC)CCOc1ccc2c(C3CCN(C(=O)Nc4ccc(OC(C)C)cc4)CC3)ncnc2c1` [Compound 35, 4-[7-(2-Diethylamino-ethoxy)-quinazolin-4-yl)-piperidine-1-carboxylic acid (4-isopropoxy-phenyl)-amide] came in with a half-maximal inhibitory concentration (IC50) of 1.5 µM. Under `O=C(Nc1ccc(N2CCOCC2)cc1)N1CCC(c2ncnc3cc(OCCC4CCCCN4)ccc23)CC1` (stereo not drawn) [Compound 98, 4-[7-(2-Piperidin-2-yl-ethoxy)-quinazolin-4-yl]-piperidine-1-carboxylic acid (4-morpholin-4-yl-phenyl)-amide] stands more than 20 µM; under `CN1CCCN(c2ccc3c(C4CCN(C(=O)Nc5ccc(N6CCOCC6)cc5)CC4)ncnc3c2)CC1` [Compound 138, 4-[7-(4-Methyl-[1,4]diazepan-1-yl)-quinazolin-4-yl]-piperidine-1-carboxylic acid (4-morpholin-4-yl-phenyl)-amide], more than 42 µM; under `COc1cc2ncnc(C3CCN(C(=O)Nc4ccc5ncsc5c4)CC3)c2cc1OC` [Compound 24, 4-(6,7-Dimethoxy-quinazolin-4-yl)-piperidine-1-carboxylic acid benzothiazol-6-ylamide], 35 µM. As to `CC(=O)N1CCC(COc2ccc3c(C4CCN(C(=O)Nc5ccc(N6CCCC6)cc5)CC4)ncnc3c2)CC1` [Compound 163, 4-[7-(1-Acetyl-piperidin-4-ylmethoxy)-quinazolin-4-yl]-piperidine-1-carboxylic acid (4-pyrrolidin-1-yl-phenyl)-amide], the half-inhibitory concentration (IC50) was 4.12 µM. To `O=C(Nc1ccc(N2CCOCC2)cc1)N1CCC(c2ncnc3cc(N4CCNCC4)ccc23)CC1` [Compound 140, 4-(7-piperazin-1-yl-quinazolin-4-yl)-piperidine-1-carboxylic acid (4-morpholin-4-yl-phenyl)-amide] belongs more than 42 µM; to `O=C(Nc1ccc(N2CCOCC2)cc1)N1CCC(c2ncnc3cc(OCCN4CCOCC4)ccc23)CC1` [Compound 96, 4-[7-(2-Morpholin-4-yl-ethoxy)-quinazolin-4-yl]-piperidine-1-carboxylic acid (4-morpholin-4-yl-phenyl)-amide], 27.9 µM. With `CC(C)Oc1ccc(NC(=O)N2CCC(c3ncnc4cc(OCCCN5CCCC5=O)ccc34)CC2)cc1` [Compound 67, 4-{7-[3-(2-Oxo-pyrrolidin-1-yl)-propoxy]-quinazolin-4-yl}-piperidine-1-carboxylic acid (4-isopropoxy-phenyl)-amide], it took 0.6 µM to reach half-maximal inhibition (IC50).

Take `CN1CCN(CCCOc2ccc3c(C4CCN(C(=O)Nc5cnc(N6CCCC6)nc5)CC4)ncnc3c2)CC1` [Compound 105, 4-{7-[3-(4-Methyl-piperazin-1-yl)-propoxy]-quinazolin-4-yl}-piperidine-1-carboxylic acid (2-pyrrolidin-1-yl-pyrimidin-5-yl)-amide]: the IC50 came out at 0.2 µM. The molecule `CC(C)Oc1ccc(NC(=O)N2CCC(c3ncnc4ccc(C#CCO)cc34)CC2)cc1` [Compound 12, 4-[6-(3-Hydroxy-prop-1-ynyl)-quinazolin-4-yl]-piperidine-1-carboxylic acid (4-isopropoxy-phenyl)-amide] gave an IC50 of 0.5 µM. Take `COc1cc2ncnc(C3CCN(C(=O)Nc4ccc(Cl)cc4)CC3)c2cc1OC` [Compound 49, 4-(6,7-Dimethoxy-quinazolin-4-yl)-piperidine-1-carboxylic acid (4-chloro-phenyl)-amide]: 22.3 µM corresponded to half-maximal inhibition (IC50). As for `CCCCc1ccc(NC(=O)N2CCC(c3ncnc4cc(OC)c(OC)cc34)CC2)cc1` [Compound 43, 4-(6,7-Dimethoxy-quinazolin-4-yl)-piperidine-1-carboxylic acid (4-butyl-phenyl)-amide], the IC50 came out at 0.8 µM. Under `CC(C)Oc1ccc(NC(=O)N2CCC(c3ncnc4cc(OCCCOS(C)(=O)=O)ccc34)CC2)cc1` [Compound 121, Methanesulfonic acid 3-{4-[1-(4-isopropoxy-phenylcarbamoyl)-piperidin-4-yl]-quinazolin-7-yloxy}-propyl ester] stands 0.13 µM. To `CS(=O)(=O)CCNc1ccc2c(C3CCN(C(=O)Nc4ccc(N5CCOCC5)cc4)CC3)ncnc2c1` [Compound 146, 4-[7-(2-Methanesulfonyl-ethylamino)-quinazolin-4-yl]-piperidine-1-carboxylic acid (4-morpholin-4-yl-phenyl)-amide] belongs more than 42 µM; to `COc1cc2ncnc(C3CCN(C(=O)Nc4ccc(OC(F)F)cc4)CC3)c2cc1OC` [Compound 51, 4-(6,7-Dimethoxy-quinazolin-4-yl)-piperidine-1-carboxylic acid (4-difluoromethoxy-phenyl)-amide], 4 µM; to `CC(C)Oc1ccc(NC(=O)N2CCC(c3ncnc4ccc(N5CCN(C)CC5)cc34)CC2)cc1` [Compound 131, 4-[6-(4-Methyl-piperazin-1-yl)-quinazolin-4-yl]-piperidine-1-carboxylic acid (4-isopropoxy-phenyl)-amide], 5.31 µM. `O=C(Nc1ccc(N2CCCC2)cc1)N1CCC(c2ncnc3cc(N4CC[C@H](O)C4)ccc23)CC1` [Compound 129, (S)-4-[7-(3-Hydroxy-pyrrolidin-1-yl)-quinazolin-4-yl]-piperidine-1-carboxylic acid (4-pyrrolidin-1-yl-phenyl)-amide] came in with a 50% inhibitory concentration (IC50) of 3.11 µM. Consider `CC(C)Oc1ccc(NC(=O)N2CCC(c3ncnc4ccc(C#CCN5CCCCC5)cc34)CC2)cc1` [Compound 14, 4-[6-(3-Piperidin-1-yl-prop-1-ynyl)-quinazolin-4-yl]-piperidine-1-carboxylic acid (4-isopropoxy-phenyl)-amide], for which half-maximal inhibition (IC50) required 0.3 µM. To `O=C1CCCN1CCOc1ccc2c(C3CCN(C(=O)Nc4ccc(N5CCOCC5)cc4)CC3)ncnc2c1` [Compound 85, 4-{7-[2-(2-Oxo-pyrrolidin-1-yl)-ethoxy]-quinazolin-4-yl}-piperidine-1-carboxylic acid (4-morpholin-4-yl-phenyl)-amide] belongs more than 20 µM; to `COc1ccc2c(C3CCN(C(=O)Nc4ccc(C(C)C)cc4)CC3)ncnc2c1` [Compound 32, 4-(7-Methoxy-quinazolin-4-yl)-piperidine-1-carboxylic acid (4-isopropyl-phenyl)-amide], 0.5 µM. Under `CCN(CC)CCCOc1ccc2c(C3CCN(C(=O)Nc4ccc(OC(C)C)cc4)CC3)ncnc2c1` [Compound 36, 4-[7-(3-Diethylamino-propoxy)-quinazolin-4-yl)-piperidine-1-carboxylic acid (4-isopropoxy-phenyl)-amide] stands 0.6 µM.

`CNC(=O)C1CCN(c2ccc3c(C4CCN(C(=O)Nc5ccc(N6CCCC6)cc5)CC4)ncnc3c2)CC1` [Compound 155, 4-[7-(4-Carboxylic acid methylamide-piperidin-1-yl)-quinazolin-4-yl]-piperidine-1-carboxylic acid (4-pyrrolidin-1-yl-phenyl)-amide]: the IC50 turned out to be 11 µM.

`O=C(Nc1ccc(N2CCCC2)nc1)N1CCC(c2ncnc3cc(OCCN4CCOC4=O)ccc23)CC1` [Compound 92, 4-{7-[2-(2-Oxo-oxazolidin-3-yl)-ethoxy]-quinazolin-4-yl}-piperidine-1-carboxylic acid (6-pyrrolidin-1-yl-pyridin-3-yl)-amide]: 1.3 µM corresponded to half-maximal inhibition (IC50). In the case of `O=C(Nc1ccc(N2CCOCC2)cc1)N1CCC(c2ncnc3cc(OCCCN4CCCC4)ccc23)CC1` [Compound 124, 4-[7-(3-Pyrrolidin-1-yl-propoxy)-quinazolin-4-yl]-piperidine-1-carboxylic acid (4-morpholin-4-yl-phenyl)-amide], the 50% inhibitory concentration (IC50) was more than 20 µM. The molecule `CS(=O)(=O)N1CCN(c2ccc3c(C4CCN(C(=O)Nc5ccc(N6CCOCC6)cc5)CC4)ncnc3c2)CC1` [Compound 142, 4-[7-(4-Methanesulfonyl-piperazin-1-yl)-quinazolin-4-yl]-piperidine-1-carboxylic acid (4-morpholin-4-yl-phenyl)-amide] gave an IC50 of 17.4 µM. Under `COc1cc2ncnc(C3CCN(C(=O)Nc4ccc5c(c4)CCO5)CC3)c2cc1OC` [Compound 27, 4-(6,7-Dimethoxy-quinazolin-4-yl)-piperidine-1-carboxylic acid (2,3-dihydro-benzofuran-5-yl)-amide] stands 9.4 µM; under `CC(C)c1ccc(NC(=O)N2CCC(c3ccnc4ccccc34)CC2)cc1` [Compound 5, 4-Quinolin-4-yl-piperidine-1-carboxylic acid (4-isopropyl-phenyl)-amide], 0.7 µM. `CN(C)C(=O)N1CCN(c2ccc3c(C4CCN(C(=O)Nc5ccc(N6CCOCC6)cc5)CC4)ncnc3c2)CC1` [Compound 143, 4-{4-[1-(4-Morpholin-4-yl-phenylcarbamoyl)-piperidin-4-yl]-quinazolin-7-yl}-piperazine-1-carboxylic acid dimethylamide] came in with a half-maximal inhibitory concentration (IC50) of 7.6 µM. Under `CC(=O)N1CCN(c2ccc3c(C4CCN(C(=O)Nc5ccc(N6CCOCC6)cc5)CC4)ncnc3c2)CC1` [Compound 141, 4-[7-(4-Acetyl-piperazin-1-yl)-quinazolin-4-yl]-piperidine-1-carboxylic acid (4-morpholin-4-yl-phenyl)-amide] stands 15 µM.
